The results in this text go back to US8119675B2, “Benzimidazole derivatives” (Merck Patent GmbH, priority 2007, dated 2012).

The target of series [1] is T1, SGLT1 (Homo sapiens, UniProt P13866).
T1 construct: expressed in transfected cells
T1 sequence (P13866 1-664): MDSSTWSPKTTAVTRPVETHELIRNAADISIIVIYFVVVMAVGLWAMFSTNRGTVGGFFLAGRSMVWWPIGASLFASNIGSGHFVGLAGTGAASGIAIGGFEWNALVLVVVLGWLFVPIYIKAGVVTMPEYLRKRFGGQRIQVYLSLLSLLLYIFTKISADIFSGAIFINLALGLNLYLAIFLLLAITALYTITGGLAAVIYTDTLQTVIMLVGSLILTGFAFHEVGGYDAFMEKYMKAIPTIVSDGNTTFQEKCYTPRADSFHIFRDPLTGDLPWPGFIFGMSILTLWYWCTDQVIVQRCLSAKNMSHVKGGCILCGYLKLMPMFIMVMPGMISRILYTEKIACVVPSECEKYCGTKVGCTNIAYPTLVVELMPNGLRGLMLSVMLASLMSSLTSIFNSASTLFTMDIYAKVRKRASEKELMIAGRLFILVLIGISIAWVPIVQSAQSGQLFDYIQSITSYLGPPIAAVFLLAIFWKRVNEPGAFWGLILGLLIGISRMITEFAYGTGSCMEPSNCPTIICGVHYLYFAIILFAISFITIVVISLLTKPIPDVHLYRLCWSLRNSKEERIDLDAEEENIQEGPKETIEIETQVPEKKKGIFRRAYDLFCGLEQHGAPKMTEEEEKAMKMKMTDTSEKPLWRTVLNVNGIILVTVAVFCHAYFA
As to the kind of experiment: 14C-AMG uptake in BHK cells transfected with SGLT1 (96-well cell-based assay). As to conditions: 50 μM AMG, 37° C., 90 min. The source says:
(§1) The compounds can be tested for their SGLT inhibition properties by means of BHK cells expressing SGLT1 and SGLT2. The production of the cells and the testing can be carried out as described below.
To construct the SGLT1 expression vector (KL225), the SLC5A1 gene (homologous to NM_000343) was amplified from a cDNA library using standard PCR technology and cloned over NheI/XhoI sites into the pcDNA3.1 expression vector (Invitrogen) containing neomycin as a selection marker. In this vector, transcription uses the enhancer/promoter of human cytomegalovirus.
(§2) The final vector KL225 together with an additional vector containing a dihydrofolate reductase gene as a selection marker was introduced into cells. Transfection into BHK21 cells (ATCC CCL-10), cultivated in DMEM medium (GIBCO/BRL), supplemented with 10% foetal calf serum (FCS) and 20 mM glutamine, was carried out using calcium phosphate transfections according to Graham, F. L. and van der Ebb, A. J. (1973), Virology 52: 456 with 5-20 μg of uncut plasmids for 10^7 cells. Stable transfectants were selected in medium containing 1 mg/ml of G418 (GIBCO/BRL) and 20-5000 nM methotrexate as final concentration, where only cells which expressed the neomycin gene and overexpressed the dhfr gene were able to grow. After growth for 2-3 weeks, the cells were cloned (0.5 cells/well) and the clones were investigated for SGLT expression in radioactivity uptake tests.
(§3) The uptake of ^14C-α-methyl-D-glucopyranoside (AMG) in, for example, Xenopus oocytes injected with the corresponding cRNA has been described in principle (for example Wen-Sen Lee et al. (1994), J. Biol. Chem. 269, 12032-12039; Guofeng You et al. (1995), J. Biol. Chem. 270, 29365-29371).
(§4) A 96-well cell-based assay was developed and adapted to HTS requirements:
(§5) BHK cells (transfected with SGLT1 or SGLT2) were seeded into 96-well microtitre plates (Cultureplates, Perkin Elmer). After at least 24 h, medium was removed, and the cell layer was washed with assay buffer (140 mM NaCl, 2 mM KCl, 1 mM CaCl2, 1 mM MgCl2, 10 mM HEPES, 5 mM Tris, adjusted to pH 7.4 using 1 M KOH). After addition of 40 μl of assay buffer, 50 μl of AMG (50 μM for SGLT1 and 2 mM for SGLT2) in the presence or absence of compounds, the cells were incubated in a total volume of 100 μl at 37° C. for 90 min. Supernatant was removed by suction and discarded. Cells were washed and lysed by addition of 50 μl of water. After 10 min at room temperature, 200 μl of Micrsoscint 40 (Perkin Elmer) were added. The radioactivity was counted in a Topcount microplate scintillation counter (Perkin Elmer). The non-specific uptake was determined in sodium-free assay buffer (266 mM sucrose, 2 mM KCl, 1 mM CaCl2, 1 mM MgCl2, 10 mM HEPES, 5 mM Tris, adjusted to pH 7.4 using 1 M KOH).

For series [2], the target named is T2, SGLT2 (Homo sapiens, UniProt P31639).
T2 construct: expressed in transfected cells
T2 sequence (P31639 1-672): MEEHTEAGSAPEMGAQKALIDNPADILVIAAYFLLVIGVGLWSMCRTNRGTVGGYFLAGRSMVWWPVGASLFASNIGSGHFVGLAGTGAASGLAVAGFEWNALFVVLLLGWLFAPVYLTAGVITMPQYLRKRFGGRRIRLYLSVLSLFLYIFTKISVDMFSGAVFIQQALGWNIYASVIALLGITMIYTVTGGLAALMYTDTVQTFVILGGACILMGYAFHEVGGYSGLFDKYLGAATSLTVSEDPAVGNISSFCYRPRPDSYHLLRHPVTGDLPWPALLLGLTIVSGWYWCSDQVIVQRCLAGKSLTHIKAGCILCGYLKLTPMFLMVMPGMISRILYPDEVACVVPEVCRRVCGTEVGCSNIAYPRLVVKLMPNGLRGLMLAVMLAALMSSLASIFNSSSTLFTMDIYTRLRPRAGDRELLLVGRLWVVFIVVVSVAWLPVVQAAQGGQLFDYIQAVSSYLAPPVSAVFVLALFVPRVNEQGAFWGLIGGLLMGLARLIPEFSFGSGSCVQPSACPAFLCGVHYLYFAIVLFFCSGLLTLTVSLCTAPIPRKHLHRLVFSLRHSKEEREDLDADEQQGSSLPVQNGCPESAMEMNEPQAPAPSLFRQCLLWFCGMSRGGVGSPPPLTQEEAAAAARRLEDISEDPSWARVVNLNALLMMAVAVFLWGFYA
As to the kind of experiment: 14C-AMG uptake in BHK cells transfected with SGLT2 (96-well cell-based assay). Particulars: 2 mM AMG, 37° C., 90 min.
Source text: as §1
To construct the SGLT2 expression vector (KL224), the SLC5A2 gene (homologous to NM_003041) was amplified from a cDNA library using standard PCR technology and cloned over NheI/XhoI sites into PCI-neo expression vector (Promega) containing neomycin as a selection marker. In this vector, transcription uses the enhancer/promoter of human cytomegalovirus and the SV40 polyadenylation signal.
as §2, with “KL224” for “KL225”
as §3, §4, §5

In turn, `COc1cc(C)c(-c2nc3ccc(F)cc3n2Cc2c(C)cccc2C)c(OCC(N)=O)c1` [Compound A1, 2-{2-[1-(2,6-dimethylbenzyl)-6-fluoro-1H-benzimidazol-2-yl]-5-methoxy-3-methylphenoxy}acetamide] came in with a melting point of 173 to 174 °C. This compound yielded an IC50 in series [1] greater than 10 µM. The IC50 in series [2] is 0.01 to 1 µM.

As to `NC(=O)COc1ccccc1-c1nc2ccccc2n1Cc1c(F)cccc1Cl` [Compound A20, 2-{2-[1-(2-Chloro-6-fluorobenzyl)-1H-benzimidazol-2-yl]phenoxy}acetamide], the concentration for half-maximal inhibition (IC50) in series [1] is greater than 10 µM; in series [2], 1 to 10 µM.

As to `NC(=O)COc1ccccc1-c1nc2cccc(Cl)c2n1Cc1c(Cl)cccc1Cl` [Compound A21, 2-{2-[7-Chloro-1-(2,6-dichlorobenzyl)-1H-benzimidazol-2-yl]phenoxy}acetamide], the half-maximal inhibitory concentration (IC50) in series [1] was greater than 10 µM; in series [2], 1 to 10 µM.

As for `Cc1cccc(Cl)c1Cn1c(-c2ccccc2OCC(N)=O)nc2ccccc21` [Compound A22, 2-{2-[1-(2-Chloro-6-methylbenzyl)-1H-benzimidazol-2-yl]phenoxy}acetamide], the values for the IC50 in series [1] and in series [2] were greater than 10 µM and 1 to 10 µM, respectively.

On to `Cc1cccc(C)c1Cn1c(-c2ccccc2OCC(N)=O)nc2cccc(Br)c21` [Compound A23, 2-{2-[7-Bromo-1-(2,6-dimethylbenzyl)-1H-benzimidazol-2-yl]phenoxy}acetamide], for which the half-maximal inhibitory concentration (IC50) in series [1] and in series [2] was greater than 10 µM throughout.

As for `Cc1cccc(C)c1Cn1c(-c2ccccc2OCC(N)=O)nc2cccc(Cl)c21` [Compound A24, 2-{2-[7-Chloro-1-(2,6-dimethylbenzyl)-1H-benzimidazol-2-yl]phenoxy}acetamide], the IC50 in series [1] is 1 to 10 µM; in series [2] it was 0.01 to 1 µM.

With `Cc1cccc(C)c1C(=O)n1c(-c2ccccc2OCC(N)=O)nc2ccccc21` [Compound A25, 2-{2-[1-(2,6-Dimethylbenzoyl)-1H-benzimidazol-2-yl]phenoxy}acetamide], the IC50 in series [1] and in series [2] was greater than 10 µM in each case.

For `Cc1cccc(C)c1Cn1c(-c2ccccc2OC2CCNC2=O)nc2ccccc21` (stereo not shown) [Compound A26, 3-{2-[1-(2,6-Dimethylbenzyl)-1H-benzimidazol-2-yl]phenoxy}pyrrolidin-2-one], the IC50 in series [1] was greater than 10 µM; in series [2], 1 to 10 µM.

For the compound `Cc1cccc(C)c1Cn1c(-c2ccccc2OC(CO)C(N)=O)nc2ccccc21` (stereo not shown) [Compound A27, 2-{2-[1-(2,6-Dimethylbenzyl)-1H-benzimidazol-2-yl]phenoxy}-3-hydroxypropionamide], the IC50 in series [1] and in series [2] was greater than 10 µM throughout.

Consider `COc1cc(C)c(-c2nc3cc(F)c(F)cc3n2Cc2c(C)cccc2C)c(OCC(N)=O)c1` [Compound A28, 2-{2-[1-(2,6-Dimethylbenzyl)-5,6-difluoro-1H-benzimidazol-2-yl]-5-methoxy-3-methylphenoxy}acetamide], for which the half-inhibitory concentration (IC50) in series [1] is greater than 10 µM; in series [2], 1 to 10 µM.

On to `Cc1cccc(C)c1Cn1c(-c2ccccc2OCC(N)=O)nc2ccc(F)c(F)c21` [Compound A29, 2-{2-[1-(2,6-Dimethylbenzyl)-6,7-difluoro-1H-benzimidazol-2-yl]phenoxy}acetamide], for which the 50% inhibitory concentration (IC50) is greater than 10 µM in series [1] and 1 to 10 µM in series [2].

Regarding `COc1cc(C)c(-c2nc3ccc(F)c(F)c3n2Cc2c(C)cccc2C)c(OCC(N)=O)c1` [Compound A30, 2-{2-[1-(2,6-Dimethylbenzyl)-6,7-difluoro-1H-benzimidazol-2-yl]-5-methoxy-3-methylphenoxy}acetamide], the IC50 lay within 1 to 10 µM in series [1] and 0.01 to 1 µM in series [2].

Usually melting point stands for the temperature of the solid-liquid transition. Usually IC50 stands for the midpoint of a concentration-inhibition curve. Lower therefore signals higher potency.
